Results published in the NIST ThermoML archive (doi:10.1016/j.jct.2015.09.004).

Tests used:
[1] = for vapor or sublimation pressure: Closed cell (Static) method; for Normal melting temperature: DTA
[2] = Molar enthalpy of transition or fusion; details: Crystal; DSC

CC(=O)c1ccc(F)cc1 [1-(4-fluorophenyl)ethanone]
[1]
Details | vapor or sublimation pressure [kPa]
255.13 K, Metastable liquid | 0.00086
256.87 K, Metastable liquid | 0.00104
258.79 K, Metastable liquid | 0.00128
260.76 K, Metastable liquid | 0.00157
262.72 K, Metastable liquid | 0.00193
264.7 K, Metastable liquid | 0.00233
266.63 K, Metastable liquid | 0.00285
268.62 K, Metastable liquid | 0.00348
270.62 K, Liquid | 0.00417
272.54 K, Liquid | 0.00501
274.51 K, Liquid | 0.00603
276.49 K, Liquid | 0.00725
278.49 K, Liquid | 0.00865
280.5 K, Liquid | 0.01035
282.42 K, Liquid | 0.01227
284.44 K, Liquid | 0.01455
286.42 K, Liquid | 0.01723
288.39 K, Liquid | 0.02022
290.38 K, Liquid | 0.02379
292.34 K, Liquid | 0.02795
294.31 K, Liquid | 0.03279
296.34 K, Liquid | 0.03807
298.27 K, Liquid | 0.04465
300.3 K, Liquid | 0.05171
302.24 K, Liquid | 0.06005
304.2 K, Liquid | 0.06895
306.15 K, Liquid | 0.07985
308.16 K, Liquid | 0.09146
310.15 K, Liquid | 0.1056

Details | Normal melting temperature [°C]
[1], Crystal | -4

Details | Molar enthalpy of transition or fusion [kcal/mol]
[2] | 3.39

CC(=O)c1ccc(Br)cc1 [4'-bromoacetophenone]
[1]
Details | vapor or sublimation pressure [kPa]
295.3 K, Crystal | 0.00115
297.26 K, Crystal | 0.00142
299.2 K, Crystal | 0.00175
301.22 K, Crystal | 0.00219
303.17 K, Crystal | 0.00269
305.12 K, Crystal | 0.00341
305.14 K, Metastable liquid | 0.00501
307.11 K, Crystal | 0.00418
307.13 K, Metastable liquid | 0.00591
309.13 K, Crystal | 0.00512
309.14 K, Metastable liquid | 0.00699
311.05 K, Crystal | 0.00632
311.08 K, Metastable liquid | 0.0082
312.97 K, Metastable liquid | 0.00953
313.08 K, Crystal | 0.00777
315.05 K, Crystal | 0.00949
315.06 K, Metastable liquid | 0.01125
317.04 K, Crystal | 0.01155
317.08 K, Metastable liquid | 0.01318
319.04 K, Crystal | 0.0141
319.06 K, Metastable liquid | 0.01542
321.03 K, Metastable liquid | 0.01778
322.97 K, Metastable liquid | 0.02065
324.98 K, Metastable liquid | 0.02389
327.07 K, Liquid | 0.02782
328.92 K, Liquid | 0.03179
331.01 K, Liquid | 0.03679
333 K, Liquid | 0.04238
334.94 K, Liquid | 0.04849
336.95 K, Liquid | 0.05561
338.92 K, Liquid | 0.06344
340.91 K, Liquid | 0.07228
342.92 K, Liquid | 0.08249
344.85 K, Liquid | 0.09385
346.83 K, Liquid | 0.1056
348.79 K, Liquid | 0.1197
350.66 K, Liquid | 0.1346
352.73 K, Liquid | 0.1529
354.58 K, Liquid | 0.1698
356.66 K, Liquid | 0.1927
358.51 K, Liquid | 0.2158
360.62 K, Liquid | 0.2427
362.46 K, Liquid | 0.27
364.54 K, Liquid | 0.3031
366.57 K, Liquid | 0.3388
368.54 K, Liquid | 0.3774
370.53 K, Liquid | 0.4201
372.5 K, Liquid | 0.4659
374.46 K, Liquid | 0.5142
376.43 K, Liquid | 0.5712
378.39 K, Liquid | 0.6312

Details | Normal melting temperature [°C]
[1], Crystal | 51.1

Details | Molar enthalpy of transition or fusion [kcal/mol]
[2] | 4.57

CC(=O)c1ccc(Cl)cc1 [4'-chloroacetophenone]
[1]
Details | vapor or sublimation pressure [kPa]
271.56 K, Metastable liquid | 0.00065
273.59 K, Metastable liquid | 0.00081
275.52 K, Metastable liquid | 0.00098
277.47 K, Metastable liquid | 0.00118
279.48 K, Metastable liquid | 0.00144
281.51 K, Metastable liquid | 0.00176
283.42 K, Metastable liquid | 0.0021
285.45 K, Metastable liquid | 0.00256
287.39 K, Metastable liquid | 0.00305
289.34 K, Metastable liquid | 0.00364
291.32 K, Liquid | 0.00437
293.32 K, Liquid | 0.00519
295.29 K, Liquid | 0.00616
297.26 K, Liquid | 0.00729
299.24 K, Liquid | 0.00863
301.19 K, Liquid | 0.01012
303.21 K, Liquid | 0.01198
305.16 K, Liquid | 0.01396
307.18 K, Liquid | 0.01629
309.12 K, Liquid | 0.01902
311.1 K, Liquid | 0.02236
313.1 K, Liquid | 0.02596
315.07 K, Liquid | 0.03015
317.04 K, Liquid | 0.03486
319.07 K, Liquid | 0.04049
321 K, Liquid | 0.04613
323.09 K, Liquid | 0.05334
325.1 K, Liquid | 0.0612
327.08 K, Liquid | 0.06999
329.05 K, Liquid | 0.07991
331.04 K, Liquid | 0.09133
333 K, Liquid | 0.1037
334.98 K, Liquid | 0.1174

Details | Normal melting temperature [°C]
[1], Crystal | 17.2

Details | Molar enthalpy of transition or fusion [kcal/mol]
[2] | 3.66

CC(=O)c1ccc(I)cc1 [para-iodoacetophenone]
[1]
Details | vapor or sublimation pressure [kPa]
313.07 K, Crystal | 0.00086
315.1 K, Crystal | 0.00108
317.07 K, Crystal | 0.00134
319.04 K, Crystal | 0.00166
321.02 K, Crystal | 0.00205
323.02 K, Crystal | 0.00253
325.06 K, Crystal | 0.00313
326.98 K, Crystal | 0.00382
329.06 K, Crystal | 0.00477
330.99 K, Crystal | 0.00578
333.01 K, Crystal | 0.0071
334.95 K, Crystal | 0.00856
336.96 K, Crystal | 0.01043
338.87 K, Crystal | 0.01256
340.91 K, Crystal | 0.01528
342.83 K, Crystal | 0.01834
344.76 K, Crystal | 0.02192
346.73 K, Crystal | 0.02634
348.73 K, Crystal | 0.03176
348.73 K, Metastable liquid | 0.03831
350.7 K, Metastable liquid | 0.04337
350.71 K, Crystal | 0.03795
352.69 K, Metastable liquid | 0.04939
352.75 K, Crystal | 0.04537
354.68 K, Metastable liquid | 0.05596
356.62 K, Metastable liquid | 0.06332
358.92 K, Liquid | 0.07293
360.65 K, Liquid | 0.08166
362.51 K, Liquid | 0.09128
364.59 K, Liquid | 0.1048
366.58 K, Liquid | 0.1171
368.51 K, Liquid | 0.131
370.52 K, Liquid | 0.1458
372.41 K, Liquid | 0.1634
374.48 K, Liquid | 0.1829
376.36 K, Liquid | 0.2045
378.41 K, Liquid | 0.2281
380.39 K, Liquid | 0.2553
382.37 K, Liquid | 0.2831
384.3 K, Liquid | 0.3146
386.31 K, Liquid | 0.3478
388.27 K, Liquid | 0.3882
389.83 K, Liquid | 0.42
392.22 K, Liquid | 0.4723
394.17 K, Liquid | 0.5188
396.15 K, Liquid | 0.5726
398.12 K, Liquid | 0.6279
399.98 K, Liquid | 0.6883
402.04 K, Liquid | 0.7599

Details | Normal melting temperature [°C]
[1], Crystal | 84.5

Details | Molar enthalpy of transition or fusion [kcal/mol]
[2] | 5.62
